Experimental data from ChEMBL document CHEMBL1201862, “PubChem BioAssay data set” (2004).
Calls of active or inactive are those of the source.

Assays:
[1] = target: T1, Zinc finger protein mex-5 (Caenorhabditis elegans, UniProt Q9XUB2); test: MEX-5/TCR-2 RNA interaction inhibitors, dose response, biochemical, C. elegans, fluorescence polarization (AID 1960)
T1 sequence (Q9XUB2 whole entry): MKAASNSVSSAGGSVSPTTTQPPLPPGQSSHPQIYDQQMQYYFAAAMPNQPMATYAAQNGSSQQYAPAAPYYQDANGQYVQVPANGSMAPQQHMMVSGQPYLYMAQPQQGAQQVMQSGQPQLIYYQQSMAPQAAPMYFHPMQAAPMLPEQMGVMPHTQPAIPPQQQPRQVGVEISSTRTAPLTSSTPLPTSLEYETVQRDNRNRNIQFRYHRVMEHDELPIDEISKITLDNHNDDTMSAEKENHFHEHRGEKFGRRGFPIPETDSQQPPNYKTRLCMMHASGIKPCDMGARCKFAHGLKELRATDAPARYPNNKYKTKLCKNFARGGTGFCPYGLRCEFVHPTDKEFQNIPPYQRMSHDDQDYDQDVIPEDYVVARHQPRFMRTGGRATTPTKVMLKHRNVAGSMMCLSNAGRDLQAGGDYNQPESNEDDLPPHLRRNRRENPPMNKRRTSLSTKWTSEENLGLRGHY

[2] = target: T2, Sentrin-specific protease 1 (Homo sapiens, UniProt Q9P0U3); test: Dose response confirmation of small molecule inhibitors of the catalytic domain of the SUMO protease, SENP1 in a FRET assay.; format: functional; conditions: read-out: IC50_Mean
T2 sequence (Q9P0U3 whole entry): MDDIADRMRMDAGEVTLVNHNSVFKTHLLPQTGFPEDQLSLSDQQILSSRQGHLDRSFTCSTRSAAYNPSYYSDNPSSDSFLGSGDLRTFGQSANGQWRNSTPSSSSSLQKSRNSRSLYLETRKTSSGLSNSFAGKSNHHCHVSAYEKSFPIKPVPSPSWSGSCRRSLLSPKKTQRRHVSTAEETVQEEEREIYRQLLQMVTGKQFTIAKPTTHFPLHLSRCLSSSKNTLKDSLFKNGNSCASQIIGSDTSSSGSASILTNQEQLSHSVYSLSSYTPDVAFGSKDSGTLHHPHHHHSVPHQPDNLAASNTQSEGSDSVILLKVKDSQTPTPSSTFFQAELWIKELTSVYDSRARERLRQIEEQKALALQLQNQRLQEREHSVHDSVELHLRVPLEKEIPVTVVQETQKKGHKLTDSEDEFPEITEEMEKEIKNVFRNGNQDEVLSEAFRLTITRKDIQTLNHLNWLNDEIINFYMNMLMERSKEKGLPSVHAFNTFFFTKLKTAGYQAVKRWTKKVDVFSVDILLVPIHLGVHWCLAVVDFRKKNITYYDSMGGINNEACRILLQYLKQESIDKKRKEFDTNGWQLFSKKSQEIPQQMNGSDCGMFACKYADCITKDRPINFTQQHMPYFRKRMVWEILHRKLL

[3] = target: T3, RNA-binding protein pos-1 (Caenorhabditis elegans, UniProt G5EF15); test: inhibitors of POS-1/mex-3 RNA binding, dose response, biochemical, fluorescence polarization (AID 1964);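 note: purified POS-1 fused to maltose binding protein made in E. coli; potency of compounds blocking POS-1 binding to fluorescent RNA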
T3 sequence (G5EF15 whole entry): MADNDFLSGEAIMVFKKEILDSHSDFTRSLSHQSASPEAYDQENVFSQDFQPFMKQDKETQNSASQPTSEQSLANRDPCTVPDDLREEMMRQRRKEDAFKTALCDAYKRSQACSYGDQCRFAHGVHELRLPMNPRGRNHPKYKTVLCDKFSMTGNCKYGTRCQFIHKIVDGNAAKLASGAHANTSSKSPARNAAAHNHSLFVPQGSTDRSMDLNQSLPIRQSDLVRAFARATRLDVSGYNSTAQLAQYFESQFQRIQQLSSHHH

[4] = target: T2, Sentrin-specific protease 1; test: potency of human SENP1 inhibitors, dose response, biochemical, kinetic FRET (AID 651697); format: functional; conditions: read-out: IC50_Mean
[5] = target: Arf-GAP with SH3 domain, ANK repeat and PH domain-containing protein 1 (Homo sapiens, UniProt Q9ULH1); format: functional;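 note: biochemical fluorescence polarization dose–response screen measuring inhibition of ASAP1; ASAP1 GAP domain stimulating GTP hydrolysis by truncated human ARF1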
Arf-GAP with SH3 domain, ANK repeat and PH domain-containing protein 1, sequence (Q9ULH1 whole entry, the tested form may be a part): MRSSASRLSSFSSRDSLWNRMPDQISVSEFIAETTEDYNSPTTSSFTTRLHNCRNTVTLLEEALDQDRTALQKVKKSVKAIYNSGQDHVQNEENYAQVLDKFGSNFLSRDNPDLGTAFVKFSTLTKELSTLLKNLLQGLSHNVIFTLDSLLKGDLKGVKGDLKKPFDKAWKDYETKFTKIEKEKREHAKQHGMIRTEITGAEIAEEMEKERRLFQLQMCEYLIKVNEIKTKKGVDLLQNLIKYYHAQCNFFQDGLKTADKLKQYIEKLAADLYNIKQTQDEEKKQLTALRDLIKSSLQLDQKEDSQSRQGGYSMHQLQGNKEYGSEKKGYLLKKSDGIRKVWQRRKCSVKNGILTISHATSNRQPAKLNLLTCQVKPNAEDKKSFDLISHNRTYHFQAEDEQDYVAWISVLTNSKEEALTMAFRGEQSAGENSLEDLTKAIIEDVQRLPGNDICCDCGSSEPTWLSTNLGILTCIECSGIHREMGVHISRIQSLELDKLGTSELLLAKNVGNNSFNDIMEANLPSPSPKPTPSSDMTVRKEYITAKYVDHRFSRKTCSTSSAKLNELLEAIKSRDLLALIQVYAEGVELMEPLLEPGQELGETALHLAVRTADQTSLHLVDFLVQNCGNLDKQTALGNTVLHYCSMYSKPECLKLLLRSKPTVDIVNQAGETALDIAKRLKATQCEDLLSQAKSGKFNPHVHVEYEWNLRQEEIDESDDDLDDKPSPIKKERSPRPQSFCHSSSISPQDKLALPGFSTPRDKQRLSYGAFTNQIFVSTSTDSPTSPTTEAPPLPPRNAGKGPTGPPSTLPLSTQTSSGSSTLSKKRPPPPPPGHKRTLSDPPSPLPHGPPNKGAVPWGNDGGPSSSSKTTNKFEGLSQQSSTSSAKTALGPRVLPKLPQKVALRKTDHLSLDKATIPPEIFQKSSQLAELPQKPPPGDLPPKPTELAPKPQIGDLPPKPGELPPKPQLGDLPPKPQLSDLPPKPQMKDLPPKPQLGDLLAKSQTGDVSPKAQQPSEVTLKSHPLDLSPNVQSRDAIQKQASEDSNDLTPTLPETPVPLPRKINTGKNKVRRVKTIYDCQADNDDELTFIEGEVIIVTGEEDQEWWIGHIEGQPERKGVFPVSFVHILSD

[6] = HEK293T cytotoxicity, dose response, cytotoxicity control for miR-122 modulator project, cell-based, activator set, cherry-pick (AID 720690); format: functional;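 note: HEK293T human cells scored for general mammalian cytotoxicity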
[7] = off-target signal loss in HeLa-CEM21 co-culture – HeLa F-luc CTL cells, cherry-picked, counter-screen for HIV-1 Env fusion inhibitor project, dose response (AID 652040); format: functional, cell-based;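 note: potency for signal decrease marking cytotoxic or nonspecific inhibition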
Cytochrome P450 2C9 = Cytochrome P450 2C9 (Homo sapiens, UniProt P11712)
Cytochrome P450 2C9, sequence (P11712 whole entry, the tested form may be a part): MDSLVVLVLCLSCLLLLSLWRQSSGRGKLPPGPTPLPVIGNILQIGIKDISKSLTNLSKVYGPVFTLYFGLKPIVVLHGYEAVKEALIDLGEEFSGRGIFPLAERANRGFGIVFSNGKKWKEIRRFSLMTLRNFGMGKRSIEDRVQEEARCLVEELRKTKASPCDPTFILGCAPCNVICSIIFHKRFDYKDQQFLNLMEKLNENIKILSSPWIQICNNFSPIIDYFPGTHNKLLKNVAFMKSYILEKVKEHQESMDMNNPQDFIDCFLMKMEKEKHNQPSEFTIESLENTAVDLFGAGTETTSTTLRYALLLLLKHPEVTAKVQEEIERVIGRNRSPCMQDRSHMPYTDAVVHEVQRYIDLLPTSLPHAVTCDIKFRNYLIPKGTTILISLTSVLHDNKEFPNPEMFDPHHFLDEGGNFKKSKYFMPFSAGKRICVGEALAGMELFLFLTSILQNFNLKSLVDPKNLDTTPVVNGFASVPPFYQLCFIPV

[8] = inhibitors of clade B AD8 Env fusion, dose response, cell-based, cherry-pick (AID 652062); format: functional;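 note: luciferase signal from cell-cell fusion driven by HIV-1 clade B AD8 Env; potency is for inhibitors of fusion seen as a drop in luminescence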
[9] = target: SWI/SNF-related matrix-associated actin-dependent regulator of chromatin subfamily A member 2 (Homo sapiens, UniProt P51531); test: Luminescence-based cell-based high throughput dose response assay to identify activators of the function of SWI/SNF related, matrix associated, actin dependent regulator of chromatin, subfamily a, member 2 (SMARCA2, BRM).; format: functional
SWI/SNF-related matrix-associated actin-dependent regulator of chromatin subfamily A member 2, sequence (P51531 whole entry): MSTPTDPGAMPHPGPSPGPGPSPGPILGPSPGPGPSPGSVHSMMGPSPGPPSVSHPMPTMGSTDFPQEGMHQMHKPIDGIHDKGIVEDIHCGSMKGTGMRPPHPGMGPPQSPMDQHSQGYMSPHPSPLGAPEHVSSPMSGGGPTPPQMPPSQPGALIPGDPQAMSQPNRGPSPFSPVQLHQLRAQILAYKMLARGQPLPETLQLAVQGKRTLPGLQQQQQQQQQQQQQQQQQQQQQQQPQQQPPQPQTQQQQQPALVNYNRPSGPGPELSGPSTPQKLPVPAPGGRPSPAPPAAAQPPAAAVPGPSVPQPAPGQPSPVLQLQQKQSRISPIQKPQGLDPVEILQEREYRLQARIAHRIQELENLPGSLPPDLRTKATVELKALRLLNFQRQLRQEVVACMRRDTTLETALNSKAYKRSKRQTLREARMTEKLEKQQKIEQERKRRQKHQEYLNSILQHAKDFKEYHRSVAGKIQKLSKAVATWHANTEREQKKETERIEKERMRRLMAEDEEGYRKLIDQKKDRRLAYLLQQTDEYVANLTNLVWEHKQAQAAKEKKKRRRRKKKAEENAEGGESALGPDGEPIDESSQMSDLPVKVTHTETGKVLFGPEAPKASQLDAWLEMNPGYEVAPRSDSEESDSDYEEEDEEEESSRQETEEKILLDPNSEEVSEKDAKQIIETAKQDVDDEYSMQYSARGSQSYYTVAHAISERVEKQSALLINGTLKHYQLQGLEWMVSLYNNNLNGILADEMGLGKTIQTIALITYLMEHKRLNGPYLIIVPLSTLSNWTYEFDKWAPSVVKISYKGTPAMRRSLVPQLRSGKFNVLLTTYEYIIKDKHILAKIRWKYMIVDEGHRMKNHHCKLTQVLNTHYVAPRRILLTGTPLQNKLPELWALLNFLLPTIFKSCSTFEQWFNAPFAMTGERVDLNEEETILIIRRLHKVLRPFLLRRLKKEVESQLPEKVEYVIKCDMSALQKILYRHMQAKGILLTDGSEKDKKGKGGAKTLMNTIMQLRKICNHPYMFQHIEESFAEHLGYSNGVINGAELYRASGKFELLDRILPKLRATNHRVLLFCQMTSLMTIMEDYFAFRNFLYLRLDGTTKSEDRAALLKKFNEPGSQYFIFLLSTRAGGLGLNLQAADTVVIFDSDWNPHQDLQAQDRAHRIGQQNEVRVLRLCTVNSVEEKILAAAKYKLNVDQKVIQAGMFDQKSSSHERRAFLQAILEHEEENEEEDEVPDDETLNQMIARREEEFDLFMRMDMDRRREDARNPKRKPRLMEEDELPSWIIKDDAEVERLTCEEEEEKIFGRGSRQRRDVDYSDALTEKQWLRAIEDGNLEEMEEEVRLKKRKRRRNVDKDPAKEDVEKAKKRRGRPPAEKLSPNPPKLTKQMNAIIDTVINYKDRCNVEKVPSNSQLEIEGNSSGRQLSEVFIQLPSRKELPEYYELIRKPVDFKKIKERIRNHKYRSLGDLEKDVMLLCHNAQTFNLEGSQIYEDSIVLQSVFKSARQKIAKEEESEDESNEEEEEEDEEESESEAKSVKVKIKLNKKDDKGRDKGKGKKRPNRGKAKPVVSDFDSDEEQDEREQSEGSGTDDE

[10] = Counterscreen for activators of the function of SWI/SNF related, matrix associated, actin dependent regulator of chromatin, subfamily a, member 2 (SMARCA2, BRM): Luminescence-based cell-based high throughput dose response assay to identify non-selective compounds using the VP16 reporter assay.; format: functional
Protein Wnt-3a = Protein Wnt-3a (Mus musculus, UniProt P27467); test: SAR analysis of small molecule antagonists of Gli-SUFU in a Wnt3a luminescent reporter assay.; format: functional
Protein Wnt-3a, sequence (P27467 whole entry): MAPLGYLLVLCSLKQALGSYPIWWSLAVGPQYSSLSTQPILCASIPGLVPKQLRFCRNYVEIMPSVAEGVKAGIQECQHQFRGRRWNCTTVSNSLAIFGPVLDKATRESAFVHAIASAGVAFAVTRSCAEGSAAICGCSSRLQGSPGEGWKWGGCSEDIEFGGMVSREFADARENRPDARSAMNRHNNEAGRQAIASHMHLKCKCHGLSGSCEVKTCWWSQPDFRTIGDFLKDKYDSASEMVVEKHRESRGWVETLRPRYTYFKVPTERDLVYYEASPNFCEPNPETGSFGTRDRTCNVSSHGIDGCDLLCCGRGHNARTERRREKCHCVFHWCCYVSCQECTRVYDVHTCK

[11] = target: Histone-lysine N-methyltransferase NSD2 (Homo sapiens, UniProt O96028); format: biochemical
Nonstructural protein 1 = Nonstructural protein 1 (Influenza A virus, UniProt Q194T2); format: functional, Influenza A virus (A/California/07/2009(H1N1))
Nonstructural protein 1, sequence (Q194T2 whole entry): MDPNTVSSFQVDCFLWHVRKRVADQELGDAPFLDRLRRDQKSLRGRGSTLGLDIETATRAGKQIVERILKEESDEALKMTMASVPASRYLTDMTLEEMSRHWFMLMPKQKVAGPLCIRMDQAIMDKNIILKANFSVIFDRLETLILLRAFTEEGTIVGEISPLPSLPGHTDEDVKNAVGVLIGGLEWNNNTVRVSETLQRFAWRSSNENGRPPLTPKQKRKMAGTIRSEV

[12] = target: T4, Calpain-2 catalytic subunit (Sus scrofa, UniProt P43367); test: pig calpain II inhibitor potency, dose response, biochemical, fluorogenic peptide substrate (AID 1420); format: functional
T4 sequence (P43367 whole entry): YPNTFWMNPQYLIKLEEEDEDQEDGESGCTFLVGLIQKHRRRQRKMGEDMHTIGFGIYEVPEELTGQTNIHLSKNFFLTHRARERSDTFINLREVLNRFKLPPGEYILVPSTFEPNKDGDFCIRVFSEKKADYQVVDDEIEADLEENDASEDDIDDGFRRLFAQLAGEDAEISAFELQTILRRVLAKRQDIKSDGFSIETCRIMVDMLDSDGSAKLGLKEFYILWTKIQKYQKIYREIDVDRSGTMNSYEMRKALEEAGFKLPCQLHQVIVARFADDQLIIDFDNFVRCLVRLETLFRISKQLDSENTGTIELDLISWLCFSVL

[13] = target: Long-chain-fatty-acid--AMP ligase FadD28 (Mycobacterium tuberculosis, UniProt P9WQ59); test: Fluorescence polarization aasay to screen for inhibitors that compete for the binding of FadD28 to a bisubstrate Measured in Biochemical System Using Plate Reader - 2147-01_Inhibitor_Dose_CherryPick_Activity.; format: functional, Mycobacterium tuberculosis H37Rv
Long-chain-fatty-acid--AMP ligase FadD28, sequence (P9WQ59 whole entry): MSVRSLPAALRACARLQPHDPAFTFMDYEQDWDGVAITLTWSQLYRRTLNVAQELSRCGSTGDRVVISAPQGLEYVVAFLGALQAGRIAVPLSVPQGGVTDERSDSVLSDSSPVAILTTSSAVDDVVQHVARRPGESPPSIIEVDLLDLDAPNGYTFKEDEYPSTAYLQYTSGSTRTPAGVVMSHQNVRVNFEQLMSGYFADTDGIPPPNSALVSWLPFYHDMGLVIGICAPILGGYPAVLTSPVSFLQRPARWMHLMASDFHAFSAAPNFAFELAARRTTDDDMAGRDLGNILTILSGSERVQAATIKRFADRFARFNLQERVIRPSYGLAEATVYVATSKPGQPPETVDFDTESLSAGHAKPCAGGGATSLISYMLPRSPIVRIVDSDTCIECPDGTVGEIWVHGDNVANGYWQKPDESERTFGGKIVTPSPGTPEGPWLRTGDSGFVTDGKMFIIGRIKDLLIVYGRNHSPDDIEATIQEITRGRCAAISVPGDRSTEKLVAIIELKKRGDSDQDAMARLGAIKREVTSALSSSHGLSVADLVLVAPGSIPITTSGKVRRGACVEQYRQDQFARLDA

Protein RecA = target: T5, Protein RecA (Mycobacterium tuberculosis, UniProt P9WHJ3); test: Fluorescence Cell-Free Homogeneous Dose Retest to Identify Inhibitors of RecA-Intein Splicing Activity. [Related pubchem assays (depositor defined):AID2097, AID2223, AID489010, AID492950]; format: functional
T5 sequence (P9WHJ3 whole entry): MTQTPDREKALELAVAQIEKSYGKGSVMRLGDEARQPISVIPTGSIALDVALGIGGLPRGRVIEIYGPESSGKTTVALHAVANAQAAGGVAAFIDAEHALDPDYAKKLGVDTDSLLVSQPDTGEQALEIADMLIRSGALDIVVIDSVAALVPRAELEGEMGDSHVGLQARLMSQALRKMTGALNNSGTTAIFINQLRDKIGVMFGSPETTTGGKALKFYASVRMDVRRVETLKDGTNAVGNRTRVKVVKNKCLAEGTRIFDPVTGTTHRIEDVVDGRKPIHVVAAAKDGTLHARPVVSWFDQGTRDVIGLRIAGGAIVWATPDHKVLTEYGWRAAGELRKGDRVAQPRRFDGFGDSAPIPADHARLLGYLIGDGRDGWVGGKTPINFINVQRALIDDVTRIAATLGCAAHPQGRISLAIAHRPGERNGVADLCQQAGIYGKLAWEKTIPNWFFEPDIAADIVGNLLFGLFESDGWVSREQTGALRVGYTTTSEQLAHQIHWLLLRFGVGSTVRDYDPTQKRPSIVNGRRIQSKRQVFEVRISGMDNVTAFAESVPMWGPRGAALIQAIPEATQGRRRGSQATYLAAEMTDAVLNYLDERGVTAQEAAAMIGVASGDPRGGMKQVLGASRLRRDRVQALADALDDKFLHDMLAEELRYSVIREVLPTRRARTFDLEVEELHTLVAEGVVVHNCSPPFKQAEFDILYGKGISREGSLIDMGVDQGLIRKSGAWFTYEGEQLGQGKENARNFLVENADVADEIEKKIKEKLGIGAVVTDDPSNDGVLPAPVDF

[14] = target: DNA repair protein RAD52 homolog (Homo sapiens, UniProt P43351); format: functional, biochemical
DNA repair protein RAD52 homolog, sequence (P43351 whole entry): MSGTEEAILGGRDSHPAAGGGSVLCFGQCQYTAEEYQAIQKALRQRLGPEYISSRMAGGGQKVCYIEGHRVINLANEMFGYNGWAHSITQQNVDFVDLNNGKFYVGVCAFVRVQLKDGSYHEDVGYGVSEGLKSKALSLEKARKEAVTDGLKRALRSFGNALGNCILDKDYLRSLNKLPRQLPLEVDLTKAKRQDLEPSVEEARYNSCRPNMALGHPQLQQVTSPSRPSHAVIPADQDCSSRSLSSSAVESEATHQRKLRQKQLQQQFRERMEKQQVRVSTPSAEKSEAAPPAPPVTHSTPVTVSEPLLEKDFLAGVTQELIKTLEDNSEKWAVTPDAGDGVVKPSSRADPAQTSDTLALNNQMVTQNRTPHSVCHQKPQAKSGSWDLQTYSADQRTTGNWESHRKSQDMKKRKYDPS

[15] = target: T6, Replicative DNA helicase DnaB (Mycobacterium tuberculosis, UniProt P9WMR3); test: DnaB intein splicing inhibitors, dose response, biochemical, cell-free fluorescence (AID 449749); format: functional
T6 sequence (P9WMR3 whole entry): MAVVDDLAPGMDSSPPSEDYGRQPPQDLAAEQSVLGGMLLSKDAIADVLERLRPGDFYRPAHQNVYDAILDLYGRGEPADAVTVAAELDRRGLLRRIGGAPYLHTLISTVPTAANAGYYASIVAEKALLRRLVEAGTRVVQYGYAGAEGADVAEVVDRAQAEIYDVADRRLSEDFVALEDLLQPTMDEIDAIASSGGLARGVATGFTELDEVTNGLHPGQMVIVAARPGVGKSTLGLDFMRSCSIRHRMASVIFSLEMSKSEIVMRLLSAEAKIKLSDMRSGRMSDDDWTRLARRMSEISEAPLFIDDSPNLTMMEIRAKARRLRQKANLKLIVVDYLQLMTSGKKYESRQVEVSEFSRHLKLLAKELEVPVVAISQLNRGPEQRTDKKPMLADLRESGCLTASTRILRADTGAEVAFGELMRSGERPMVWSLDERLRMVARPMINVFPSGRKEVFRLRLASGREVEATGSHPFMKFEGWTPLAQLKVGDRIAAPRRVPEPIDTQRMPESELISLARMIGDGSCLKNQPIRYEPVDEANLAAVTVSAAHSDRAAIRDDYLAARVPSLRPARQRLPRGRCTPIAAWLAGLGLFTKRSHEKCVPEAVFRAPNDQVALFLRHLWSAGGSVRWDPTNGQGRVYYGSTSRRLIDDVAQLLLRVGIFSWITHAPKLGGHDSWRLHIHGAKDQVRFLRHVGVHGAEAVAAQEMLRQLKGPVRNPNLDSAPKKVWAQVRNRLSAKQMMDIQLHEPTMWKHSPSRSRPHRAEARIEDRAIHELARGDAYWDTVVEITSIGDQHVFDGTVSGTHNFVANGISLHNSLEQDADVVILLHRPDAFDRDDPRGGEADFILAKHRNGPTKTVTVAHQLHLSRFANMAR

[16] = target: T7, Mitochondrial peptide methionine sulfoxide reductase (Bos taurus, UniProt P54149); test: Absorbance-based biochemical high throughput dose response assay for activators of Methionine sulfoxide reductase A (MsrA).; format: functional
T7 sequence (P54149 whole entry): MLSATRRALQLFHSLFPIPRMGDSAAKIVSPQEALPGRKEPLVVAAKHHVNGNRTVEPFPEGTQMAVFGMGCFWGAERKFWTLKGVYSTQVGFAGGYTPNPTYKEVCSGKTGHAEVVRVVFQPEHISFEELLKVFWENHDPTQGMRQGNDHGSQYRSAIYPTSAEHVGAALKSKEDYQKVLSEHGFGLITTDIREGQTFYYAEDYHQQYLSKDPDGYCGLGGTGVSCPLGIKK

Vero = test: cells; format: functional; conditions: Chlorocebus sabaeus

COc1ccc2nc3ccccc3nc2c1NC(=O)c1ccc(Br)cc1
EC50 [1]: 6.66 µM (inconclusive) | IC50 [2]: 9.47 µM (active) | EC50 [3]: 6.41 µM (active) | IC50 [4]: 10 µM (active)

COc1cc2sc3ccc(C#Cc4ccccn4)cc3c(=O)c2cc1OC
IC50 [5]: 22.9 µM (inactive)

COc1ccc(CN(C)C[C@@H]2OCCCC[C@H](C)Oc3ccc(NC(=O)Nc4ccc(C(F)(F)F)cc4)cc3C(=O)N([C@H](C)CO)C[C@H]2C)cc1
AC50 [6]: 16.6 µM (active)

O=C(Nc1ccc(S(=O)(=O)N2CCCC2)cc1)c1ccc(CN2CCOCC2)cc1
AC50 [7]: > 70 µM (inactive) | AC50 (Cytochrome P450 2C9): 10 µM (inconclusive) | AC50 [8]: 6.7 µM (active)

C=C1C(=O)[C@]23C[C@H]1CC[C@H]2[C@]1(C)[C@@H](O)CC[C@@](C)(C(=O)O)[C@H]1C[C@@H]3O [GEOPYXIN A]
EC50 [9]: > 91.1 µM (inactive) | EC50 [10]: > 91.1 µM (inactive)

Cc1ccc(C(=O)Nc2cc(N3CCCCC3)ncn2)cc1
IC50 (Protein Wnt-3a): > 21.8 µM (inactive)

COc1cc(OC)cc(C(=O)Nc2cc(N3CCCCC3)ncn2)c1
IC50 (Protein Wnt-3a): > 21.8 µM (inactive)

COC1=C(Nc2ccc(OC)cc2)C(=O)c2ccccc2C1=O
AC50 [11]: 8.98 µM (active) | IC50 (Nonstructural protein 1): 9.3 µM (active)

O=C(Nc1ccc2oc(=O)ccc2c1)c1ccc(-c2ccc(Cl)cc2)o1
IC50 [5]: 9.51 µM (active) | IC50 [12]: 18.2 µM (not active)

Nc1nnc(SCCCOc2ccc(F)cc2)s1
AC50 [13]: 46.6 µM (active)

Cc1ccc(N=C(S)N(C)Cc2cn(C)c3ccccc23)cc1
AC50 [13]: 78.8 µM (active)

Nc1ccc2[nH]cnc2c1
EC50 (Protein RecA): 23.6 µM (active) | AC50 [14]: 6.22 µM (active) | AC50 [15]: 2.92 µM (active)

O=C(Nc1cccc([N+](=O)[O-])c1)c1ccc([N+](=O)[O-])o1
EC50 [16]: > 104 µM (inactive) | EC50 [9]: > 91.2 µM (inactive) | CC50 (Vero): 12 µM (active) | EC50 [10]: > 91.2 µM (inactive)
